Data published in ChEMBL document CHEMBL1201862, “PubChem BioAssay data set” (2004).
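96-well plates; 48 h exposure; 5 concentrations. Endpoints by linear interpolation between flanking doses. Not reached: highest tested concentration assigned. GI50 = concentration required for 50% inhibition of growth.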 Active and inactive are the calls of the source. Rule as the data show it: active = GI50 up to about 1.1 µM and inactive = higher.

Experiments:
Assay in all cases: DTP human tumour cell line panel, 48 h
OVCAR-8 = tested on: OVCAR-8
EKVX = tested on: EKVX
CCRF-CEM = tested on: CCRF-CEM
UO-31 = tested on: UO-31
A549 = tested on: A549
SNB-75 = tested on: SNB-75
SK-MEL-28 = tested on: SK-MEL-28
SF-268 = tested on: SF-268
SF-539 = tested on: SF-539
HCT-15 = tested on: HCT-15
RXF 393 = tested on: RXF 393
OVCAR-5 = tested on: OVCAR-5
COLO 205 = tested on: COLO 205
HOP-62 = tested on: HOP-62
U-251 = tested on: U-251
RPMI-8226 = tested on: RPMI-8226
HOP-92 = tested on: HOP-92
UACC-62 = tested on: UACC-62
786-0 = tested on: 786-0

SMILES	GI50 (OVCAR-8)	GI50 (EKVX)	GI50 (CCRF-CEM)	GI50 (UO-31)	GI50 (A549)	GI50 (SNB-75)	GI50 (SK-MEL-28)	GI50 (SF-268)	GI50 (SF-539)	GI50 (HCT-15)	GI50 (RXF 393)	GI50 (OVCAR-5)	GI50 (COLO 205)	GI50 (HOP-62)	GI50 (U-251)	GI50 (RPMI-8226)	GI50 (HOP-92)	GI50 (UACC-62)	GI50 (786-0)
C#CCCCCC#CC1CCCC1C1=CC(=O)c2ccccc21 (centres undefined)	1.66 µM (inactive)	14.8 µM (inactive)	1.5 µM (inactive)	8.17 µM (inactive)	13.5 µM (inactive)	5.45 µM (inactive)	5.18 µM (inactive)	3.32 µM (inactive)	8.93 µM (inactive)	7.24 µM	4.81 µM (inactive)	11.5 µM (inactive)	15.3 µM (inactive)	7.36 µM (inactive)	4.43 µM (inactive)	1.98 µM (inactive)	4.09 µM (inactive)	2.05 µM (inactive)	–
N#CC(OC1OC(COC2OC(CO)C(O)C(O)C2O)C(O)C(O)C1O)c1ccccc1 (centres undefined)	> 225 µM (inactive)	> 225 µM (inactive)	> 225 µM (inactive)	> 225 µM (inactive)	> 225 µM (inactive)	> 225 µM (inactive)	> 225 µM (inactive)	> 225 µM (inactive)	> 225 µM (inactive)	> 225 µM	> 225 µM (inactive)	> 191 µM (inactive)	> 225 µM (inactive)	> 225 µM (inactive)	> 225 µM (inactive)	> 225 µM (inactive)	> 225 µM (inactive)	> 225 µM (inactive)	–
CC(=O)Nc1ccc(C(=O)NN2C(=O)C(Cl)C2c2cc(Br)cc(Br)c2O)cc1 (centres undefined)	> 100 µM (inactive)	> 100 µM (inactive)	> 100 µM (inactive)	> 100 µM (inactive)	> 100 µM (inactive)	37.3 µM (inactive)	> 10 µM (inactive)	> 100 µM (inactive)	> 100 µM (inactive)	> 100 µM	–	> 100 µM (inactive)	> 100 µM (inactive)	> 100 µM (inactive)	> 100 µM (inactive)	> 100 µM (inactive)	> 100 µM (inactive)	> 100 µM (inactive)	> 100 µM (inactive)
CCOC(=O)C(N=C(c1ccccc1)c1ccccc1)N(C(=O)OC(C)(C)C)C(=O)OC(C)(C)C (centres undefined)	> 100 µM (inactive)	> 100 µM (inactive)	–	> 100 µM (inactive)	> 100 µM (inactive)	82 µM (inactive)	> 100 µM (inactive)	> 100 µM (inactive)	> 100 µM (inactive)	> 100 µM	19.8 µM (inactive)	> 100 µM (inactive)	> 100 µM (inactive)	–	> 100 µM (inactive)	64.3 µM (inactive)	7.45 µM (inactive)	> 100 µM (inactive)	> 100 µM (inactive)
C=C(C(=C)P(=S)(c1ccccc1)c1ccccc1)P(=S)(c1ccccc1)c1ccccc1	> 100 µM (inactive)	> 100 µM (inactive)	> 100 µM (inactive)	–	> 100 µM (inactive)	45.5 µM (inactive)	> 100 µM (inactive)	> 100 µM (inactive)	> 100 µM (inactive)	> 100 µM	> 100 µM (inactive)	> 100 µM (inactive)	> 100 µM (inactive)	> 100 µM (inactive)	> 100 µM (inactive)	8.75 µM (inactive)	2.52 µM (inactive)	> 100 µM (inactive)	> 100 µM (inactive)
CC1=C(O)C(=O)[C@@H]2O[C@@H]2C1=O	4.79 µM (inactive)	14.7 µM (inactive)	1.6 µM (inactive)	22.3 µM (inactive)	27.3 µM (inactive)	17.4 µM (inactive)	5.98 µM (inactive)	14.2 µM (inactive)	15.9 µM (inactive)	7.01 µM	2.84 µM (inactive)	16.3 µM (inactive)	4.72 µM (inactive)	35.3 µM (inactive)	19.4 µM (inactive)	3.46 µM (inactive)	5.57 µM (inactive)	8.49 µM (inactive)	–
Cc1cc(NS(=O)(=O)c2ccc(NC(=O)c3cccc4cc5ccccc5nc34)cc2)no1	16.6 µM (inactive)	29.6 µM (inactive)	16 µM (inactive)	6.87 µM (inactive)	22 µM (inactive)	17.6 µM (inactive)	8.36 µM (inactive)	12.9 µM (inactive)	11.6 µM (inactive)	14.7 µM	14.8 µM (inactive)	23.2 µM (inactive)	23.3 µM (inactive)	27.6 µM (inactive)	12.5 µM (inactive)	16.1 µM (inactive)	–	13.8 µM (inactive)	16.7 µM (inactive)
COC(=O)c1ccc(/N=N/N(C)CO)cc1	83.2 µM (inactive)	> 100 µM (inactive)	> 100 µM (inactive)	> 100 µM (inactive)	> 100 µM (inactive)	27.7 µM (inactive)	> 100 µM (inactive)	–	57.4 µM (inactive)	> 100 µM	59.6 µM (inactive)	> 100 µM (inactive)	> 100 µM (inactive)	81.8 µM (inactive)	48.6 µM (inactive)	> 100 µM (inactive)	–	51.1 µM (inactive)	74 µM (inactive)
O=C1c2ccccc2CC1C1(O)C(=O)Nc2c(Cl)cc(Cl)cc21 (centres undefined)	39.4 µM (inactive)	67 µM (inactive)	26.6 µM (inactive)	49.8 µM (inactive)	47.9 µM (inactive)	61.9 µM (inactive)	> 100 µM (inactive)	61 µM (inactive)	–	42.5 µM	23.6 µM (inactive)	> 100 µM (inactive)	75.2 µM (inactive)	99.5 µM (inactive)	54.8 µM (inactive)	20.8 µM (inactive)	53.3 µM (inactive)	–	> 100 µM (inactive)
Cc1cccc2c1Oc1cc(Cl)ccc1C2NC(=O)CN(C)C (centres undefined)	> 100 µM (inactive)	26.5 µM (inactive)	49.1 µM (inactive)	28.8 µM (inactive)	> 100 µM (inactive)	21.1 µM (inactive)	27.1 µM (inactive)	74.3 µM (inactive)	80.5 µM (inactive)	45.2 µM	26.5 µM (inactive)	> 100 µM (inactive)	33.5 µM (inactive)	57.7 µM (inactive)	–	29.2 µM (inactive)	–	24.3 µM (inactive)	14.5 µM (inactive)
C=C1CC(OC)(C(O)C(=O)N[C@H]2OCO[C@H]3C2O[C@H](C[C@H](O)COC)C(C)(C)C3OC)O[C@H](C)[C@@H]1C (some centres undefined)	< 0.00773 µM (active)	< 0.00773 µM (active)	< 0.00773 µM (active)	< 0.00773 µM (active)	< 0.00773 µM (active)	< 0.00773 µM (active)	< 0.00773 µM (active)	< 0.00773 µM (active)	< 0.00773 µM (active)	< 0.00773 µM	< 0.00773 µM (active)	< 0.00773 µM (active)	< 0.00773 µM (active)	< 0.00773 µM (active)	< 0.00773 µM (active)	< 0.00773 µM (active)	–	< 0.00773 µM (active)	–
O=c1[nH]cc(COCC(F)(F)C(F)(F)C(F)(F)C(F)F)c(=O)[nH]1	> 100 µM (inactive)	> 100 µM (inactive)	> 100 µM (inactive)	> 100 µM (inactive)	> 100 µM (inactive)	> 100 µM (inactive)	> 100 µM (inactive)	> 100 µM (inactive)	–	> 100 µM	> 100 µM (inactive)	> 100 µM (inactive)	> 100 µM (inactive)	> 100 µM (inactive)	> 100 µM (inactive)	> 100 µM (inactive)	> 100 µM (inactive)	> 100 µM (inactive)	> 100 µM (inactive)
O=C1N/C(=N/N=C/C(O)C(O)C(O)CO)N/C1=C\c1ccco1 (centres undefined)	> 100 µM (inactive)	> 100 µM (inactive)	93.1 µM (inactive)	–	64.6 µM (inactive)	> 100 µM (inactive)	> 100 µM (inactive)	> 100 µM (inactive)	> 100 µM (inactive)	> 100 µM	> 100 µM (inactive)	> 100 µM (inactive)	> 100 µM (inactive)	> 100 µM (inactive)	> 100 µM (inactive)	> 100 µM (inactive)	> 100 µM (inactive)	> 100 µM (inactive)	> 100 µM (inactive)
CCCCC#C[I+]c1ccccc1	16.1 µM (inactive)	15.6 µM (inactive)	4.97 µM (inactive)	16.4 µM (inactive)	17.8 µM (inactive)	15.6 µM (inactive)	17 µM (inactive)	19.9 µM (inactive)	22.4 µM (inactive)	8.28 µM	20.1 µM (inactive)	14.8 µM (inactive)	15.4 µM (inactive)	21.5 µM (inactive)	16.2 µM (inactive)	–	11.7 µM (inactive)	17 µM (inactive)	15.5 µM (inactive)
O=C1C(Cl)N(c2cccc([N+](=O)[O-])c2)C1c1c[nH]c2ccccc12 (centres undefined)	23.1 µM (inactive)	28.4 µM (inactive)	4.61 µM (inactive)	17.5 µM (inactive)	22.1 µM (inactive)	22.9 µM (inactive)	23.7 µM (inactive)	29.6 µM (inactive)	15.3 µM (inactive)	–	12.9 µM (inactive)	11.9 µM (inactive)	22.5 µM (inactive)	17.1 µM (inactive)	22.2 µM (inactive)	16.9 µM (inactive)	19 µM (inactive)	13.8 µM (inactive)	–
COc1cccc(NC(=O)CC(=O)n2nc(C)c(/N=N/c3ccccc3)c2C)c1	> 100 µM (inactive)	58.6 µM (inactive)	–	65.6 µM (inactive)	> 100 µM (inactive)	47.8 µM (inactive)	> 100 µM (inactive)	> 100 µM (inactive)	> 100 µM (inactive)	–	–	–	> 100 µM (inactive)	> 100 µM (inactive)	> 100 µM (inactive)	> 100 µM (inactive)	> 100 µM (inactive)	79.1 µM (inactive)	> 100 µM (inactive)
